Values joined by “and” are separate entries in the source; they are usually repeats but may differ in a detail not shown here. Identical values can stand only once. Like-named read-outs stand apart in the source and are kept apart here.
Tested on: AsPC-1 cells
Assay: Cell proliferation assay, chemodrug + ATR inhibitor (Incucyte confluence, 72 h);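 also: underlying read-out for every value is AsPC-1 confluence after 72 h incubation at 37 °C and 5% CO2, divided by that well's starting confluence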
Conditions: for Ratio: Response / Response vehicle (mean), replicates R1-R3; for EC50: read-out: EC50 mean, AsPC-1, mean of R1-R3, repeated in each replicate line
[1] = chemodrug 30 nM alone (ATRi 0 nM)
[2] = chemodrug 100 nM alone (ATRi 0 nM)
[3] = chemodrug 300 nM alone (ATRi 0 nM)
[4] = chemodrug 1000 nM alone (ATRi 0 nM)
[5] = chemodrug 3000 nM alone (ATRi 0 nM)

For `N.N.[Cl][Pt][Cl]` [Cisplatin], the Ratio (Drug 10 nM alone, ATRi 0 nM (experiment 'GEM')) was 1.02 and 1.01, the Ratio (Drug 30 nM + ATRi 3 nM (GEM+ATRi_dose1)) was 0.99 and 0.92 and 0.96 and the Ratio (Drug 30 nM + ATRi 10 nM (GEM+ATRi_dose2)) was 0.71 and 0.70. For the same compound, the Ratio (Drug 30 nM + ATRi 30 nM (GEM+ATRi_dose3)) was 0.43 and 0.42, the Ratio (Drug 30 nM alone, ATRi 0 nM (experiment 'GEM')) was 1.03 and 0.99 and the Ratio (Drug 100 nM + ATRi 3 nM (GEM+ATRi_dose1)) was 0.79 and 0.74. For the same compound, the Ratio (Drug 100 nM + ATRi 10 nM (GEM+ATRi_dose2)) was 0.40, the Ratio (Drug 100 nM + ATRi 30 nM (GEM+ATRi_dose3)) was 0.35 and 0.41 and the Ratio (Drug 100 nM alone, ATRi 0 nM (experiment 'GEM')) was 0.94 and 0.90. For the same compound, the Ratio (Drug 300 nM + ATRi 3 nM (GEM+ATRi_dose1)) was 0.51 and 0.44 and 0.43, the Ratio (Drug 300 nM + ATRi 10 nM (GEM+ATRi_dose2)) was 0.35 and the Ratio (Drug 300 nM + ATRi 30 nM (GEM+ATRi_dose3)) was 0.27 and 0.30. The Ratio (Drug 300 nM alone, ATRi 0 nM (experiment 'GEM')) was 0.77 and 0.57, the Ratio (Drug 1000 nM + ATRi 3 nM (GEM+ATRi_dose1)) was 0.32 and 0.34 and 0.31 and the Ratio (Drug 1000 nM + ATRi 10 nM (GEM+ATRi_dose2)) was 0.28 and 0.31. The Ratio (Drug 1000 nM + ATRi 30 nM (GEM+ATRi_dose3)) was 0.24 and 0.27, the Ratio (Drug 1000 nM alone, ATRi 0 nM (experiment 'GEM')) was 0.45 and 0.36 and the Ratio (Drug 3000 nM + ATRi 3 nM (GEM+ATRi_dose1)) was 0.26 and 0.34 and 0.27. For the same compound, the Ratio (Drug 3000 nM + ATRi 10 nM (GEM+ATRi_dose2)) was 0.26 and 0.30 and 0.25, the Ratio (Drug 3000 nM + ATRi 30 nM (GEM+ATRi_dose3)) was 0.23 and 0.30 and the Ratio (Drug 3000 nM alone, ATRi 0 nM (experiment 'GEM')) was 0.28 and 0.36. The “Ratio (Response / Response vehicle (mean))” value (chemodrug 1 nM + ATRi 10 nM) was 1.00, the Response (chemodrug 1 nM + ATRi 10 nM) was 89.91 and the “Ratio (Response / Response vehicle (mean))” value (chemodrug 1 nM + ATRi 30 nM) was 0.80. The Response (chemodrug 1 nM + ATRi 30 nM) was 71.79, the “Ratio (Response / Response vehicle (mean))” value (chemodrug 1 nM alone (ATRi 0 nM)) was 1.02 and the “Ratio (Response / Response vehicle (mean))” value (chemodrug 3 nM + ATRi 10 nM) was 0.99. The Response (chemodrug 3 nM + ATRi 10 nM) was 89.48, the “Ratio (Response / Response vehicle (mean))” value (chemodrug 3 nM + ATRi 30 nM) was 0.63 and the Response (chemodrug 3 nM + ATRi 30 nM) was 57.06. The “Ratio (Response / Response vehicle (mean))” value (chemodrug 3 nM alone (ATRi 0 nM)) was 1.00, the “Ratio (Response / Response vehicle (mean))” value (chemodrug 10 nM + ATRi 10 nM) was 0.89 and the Response (chemodrug 10 nM + ATRi 10 nM) was 80.53. For the same compound, the “Ratio (Response / Response vehicle (mean))” value (chemodrug 10 nM + ATRi 30 nM) was 0.51, the Response (chemodrug 10 nM + ATRi 30 nM) was 45.87 and the “Ratio (Response / Response vehicle (mean))” value (chemodrug 10 nM alone (ATRi 0 nM)) was 0.99. The “Ratio (Response / Response vehicle (mean))” value (chemodrug 30 nM + ATRi 10 nM) was 0.69, the Response (chemodrug 30 nM + ATRi 10 nM) was 62.02 and the “Ratio (Response / Response vehicle (mean))” value (chemodrug 30 nM + ATRi 30 nM) was 0.43. The Response (chemodrug 30 nM + ATRi 30 nM) was 38.92, the “Ratio (Response / Response vehicle (mean))” value [1] was 1.03 and the Response [1] was 92.93. The “Ratio (Response / Response vehicle (mean))” value (chemodrug 100 nM + ATRi 10 nM) was 0.43, the Response (chemodrug 100 nM + ATRi 10 nM) was 39.16 and the “Ratio (Response / Response vehicle (mean))” value (chemodrug 100 nM + ATRi 30 nM) was 0.35. The Response (chemodrug 100 nM + ATRi 30 nM) was 31.50, the “Ratio (Response / Response vehicle (mean))” value [2] was 0.90 and the Response [2] was 81.28. The “Ratio (Response / Response vehicle (mean))” value (chemodrug 300 nM + ATRi 10 nM) was 0.31, the Response (chemodrug 300 nM + ATRi 10 nM) was 28.30 and the “Ratio (Response / Response vehicle (mean))” value (chemodrug 300 nM + ATRi 30 nM) was 0.27. The Response (chemodrug 300 nM + ATRi 30 nM) was 23.96, the “Ratio (Response / Response vehicle (mean))” value [3] was 0.65 and the Response [3] was 58.52. For the same compound, the “Ratio (Response / Response vehicle (mean))” value (chemodrug 1000 nM + ATRi 10 nM) was 0.29, the Response (chemodrug 1000 nM + ATRi 10 nM) was 25.88 and the “Ratio (Response / Response vehicle (mean))” value (chemodrug 1000 nM + ATRi 30 nM) was 0.26. For the same compound, the Response (chemodrug 1000 nM + ATRi 30 nM) was 23.54, the “Ratio (Response / Response vehicle (mean))” value [4] was 0.34 and the Response [4] was 30.70. The “Ratio (Response / Response vehicle (mean))” value (chemodrug 3000 nM + ATRi 30 nM) was 0.23, the Response (chemodrug 3000 nM + ATRi 30 nM) was 20.88 and the “Ratio (Response / Response vehicle (mean))” value [5] was 0.29. For the same compound, the Response [5] was 26.17, the “sensitization of AsPC-1 cells to the chemodrug by Elimusertib” value (chemodrug + three sub-EC50 doses of Elimusertib) was “sensitized” and the EC50 (Experiment GEM (no ATRi)) was 0.344 µM. For the same compound, the EC50 (Experiment GEM+ATRi_dose1) was 0.147 µM, the EC50 (Experiment GEM+ATRi_dose2) was 0.0361 µM and the EC50 (Experiment GEM+ATRi_dose3) was 0.00642 µM.

Source: article PMC11876601 (Molecular Systems Biology, 2025)
